The test system of one assay is p38-MAPK. In words: Western immunoblot of phosphorylated p38-MAPK in human islets. The assay is classed as cell-based. From the text: (§1) Equal amounts of whole islet cell protein extracts were separated on polyacrylamide-sodium dodecyl sulfate gels and transferred to polyvinylidene difluoride transfer membranes (GE Healthcare, Buckinghamshire, UK). The blots were probed with primary antibodies, and bands were detected using horseradish […] secondary antibodies (GE Healthcare UK Limited, Chalfont, UK) and the enhanced chemiluminescence detection system (GE Healthcare).
(§2) Rabbit PAb anti-p38-MAPK (pTpY180/182) and anti-c-Jun N-terminal kinase (JNK)-1 and -2 (pTpY183/185) were purchased from Alpha BioSource/Invitrogen and were used at a 1:500 dilution. Mouse monoclonal anti-p38-MAPK (A-12) and rabbit polyclonal anti-actin (1-19) were purchased from Santa Cruz Biotechnology (Santa Cruz, Calif.). p38-MAPK was used at a 1:500 dilution, and actin was used at a 1:2500 dilution. Rabbit anti-12-LO (see Ref. 8) was used at a 1:1000 dilution.
(§3) To determine whether treating islets with 12(S)-HETE would affect the activity of two well-known stress-mediated pathways linked to β-cell damage, p38-MAPK and JNK in human islets, were investigated. […] The results are presented as the means±SD. *, P<0.05 compared with the corresponding control; #, P<0.05 compared with the cytokine treatment group.
On the technique in general: Immunoblotting shows a protein as a band on a membrane.

Assay [1] relates to human islets. In words: Glucose-stimulated insulin secretion in human islets. Type of assay: cell-based. The note with it: for effect on insulin secretion: human islets, 1 and 100 nM, 4 hours incubation, then 1 hour in 11 mM glucose. The method, then: In other studies, human islets were cultured in CMRL medium-1066 (Invitrogen) with 5% fetal bovine serum overnight and then transitioned to serum free Kreb-Ringer buffer at 37° C., and islets were incubated with and without HETEs in 3 and 18 mM glucose for 4 hours, as shown in FIG. 12. The supernatant was collected after each treatment, and insulin concentration in the supernatant was measured by an enzyme immunoassay method (Mercodia, Uppsala, Sweden) with a mouse or human insulin standard. The intraassay variation was less than 4%, and the interassay variation was less than 10%.
LOs catalyze the oxidation of linoleic acid and arachidonic acid, generating products of varying stability. […] Referring to FIGS. 13A and 13B, 12(S)-HETE, 15(S)-HETE, 12-HPETE, and 12-RHETE were tested at 1 and 100 nM doses to examine their effects on insulin secretion. Human islets were incubated with the various HETEs for 4 hours and then assessed for insulin secretion during a 1-hour period incubated in 11 mM glucose. Also confirmed were the effects of 12(S)-HETE on basal (3 mM) and stimulated (18 mM) glucose concentration.

Another assay has as its system JNK-1 and -2. The assay can be described thus: Western immunoblot of phosphorylated JNK in human islets. Type of assay: cell-based. To be noted: human islets treated with 12(S)-HETE.
From the text: as §1, §2, §3

Assay [2] deals with human islets. In words: Cell death by propidium iodide (PI) fluorescence. To be noted: for cell death, PI staining intensity: overnight incubation. The assay is classed as cell-based. The method, then:
Islets were treated with 20 μg/ml of propidium iodide (PI) and incubated for 10 minutes. Islets were imaged once under brightfield illumination to determine the islet borders and imaged again to measure PI fluorescence using 535-nm excitation and 617-nm emission as previously reported (11). Islets were circled, and the mean PI fluorescence intensity was determined for each islet individually. Three separate trials from three donors were conducted.
Islet cell death was evaluated by PI staining in islets after overnight incubation with 1, 10, or 100 nM 12(S)-HETE. […] This finding is consistent with dose-response measures of cell death previously observed with mouse islets (8).

Assay [3] has as its system human islets. The note with it: 50 μm LSF overnight pretreatment, then 1 nm 12(S)-HETE 4 hours.
Experimental: Viability was assessed by detecting 3-(4,5-dimethylthiazol-2-yl)-2,5-diphenyltetrazolium bromide (MTT; Sigma-Aldrich) metabolism as previously described (17).
Human islets from four different human donors were pretreated with 50 μm LSF overnight or untreated as indicated. Islets were then treated with 1 nm 12(S)-HETE for 4 hours and incubated in 11 mm glucose for 1 hour to measure islet metabolic activity by MTT assay (A) or insulin secretion (B).
The mark [4] stands for this setting: human islets treated with 12(S)-HETE.

SMILES strings stand for the structures. “Also recorded” adds a separate entry of the source.

Consider `CCCCC/C=C\C[C@@H](O)/C=C/C=C\C/C=C\CCCC(=O)O` [12(S)-HETE, 12-hydroxyeicosatetraenoic acid], for which, in the assay on p38-MAPK (setting [4]), the “phosphorylated p38 (pp38) protein activity” value is listed as “increased phosphorylated p38” and the “total p38-MAPK (p38)” value is “without any change”. Moreover, the “effect on insulin secretion” value in the assay on human islets [1] was “consistently reduced; also recorded: most substantial reduction in insulin secretion”. For the same compound, the “phosphorylated JNK (ppJNK1 and -2) activity” value in the assay on JNK-1 and -2 is recorded as “not affected”. Also, in the assay with human islets [2] (100 nM), the “increase in cell death” value is 50% and the “cell death, PI staining intensity” value is reported as “significant increase in cell death”. Moreover, the “cell death, PI staining intensity” value in the assay on human islets [2] (1 or 10 nM) is “no significant increase in cell death”.

As for `CCCCC/C=C\CC(/C=C/C=C\C/C=C\CCCC(=O)O)OO` (stereo not drawn) [12-HPETE, 12-hydroperoxyeicosatetraenoic acid], the “effect on insulin secretion” value in the assay with human islets [1] is listed as “consistently reduced”; with human islets [1] (listed as 12(S)HPETE), “most substantial reduction in insulin secretion”.

Take `N#CC(=Cc1ccc(O)c(O)c1)C(=O)OCC=Cc1ccccc1` [CDC, cinnamyl-3,4-dihydroxy-α-cyanocinnamate]: the “cytokine-induced pp38-MAPK activity” value with p38-MAPK (human islets pretreated with CDC, cytokines TNF-α, IFN-γ, IL-1β) is on record as “significantly reduced; also recorded: blocked”.

As to `C[C@@H](O)CCCCn1c(=O)c2c(ncn2C)n(C)c1=O` [LSF, Lisofylline], in the assay with human islets [3], the “reversal of 12(S)-HETE effects on metabolic activity (MTT assay)” value is reported as “partially reversed”. Further, in the assay on human islets [1] (50 μm LSF overnight pretreatment, then 1 nm 12(S)-HETE 4 hours, 11 mm glucose 1 hour), the “reversal of 12(S)-HETE-induced reduction in insulin secretion” value is recorded as “reversed”.
